Laboratory results: ChEMBL document CHEMBL3507680, “University of Dundee, Gates Library screen for HepG2 cell viability”

Assay: Human HepG2 cell viability assay in 384 well format
Assay type: toxicity, cell-based
Set-up: dose 125 nL, time 70.5 hour; concentration not given beside the values
Conditions: HepG2 cells, read-out: Inhibition

O=C1NCC2=C1C(c1ccccc1)Nc1ccccc1N2 (stereo not drawn)
cytotoxicity at 70.5 h: -2.81%

Cc1cccc(NC(=O)C2CC(=O)n3cnnc3S2)c1 (stereo not drawn)
cytotoxicity at 70.5 h: -0.584%

CN(CC(=O)N1CCc2[nH]c3ccc(F)cc3c2C1)CC1OCCO1
cytotoxicity at 70.5 h: 3.34%

CCSc1nnc(N(CCC#N)CCC#N)s1
cytotoxicity at 70.5 h: 1.21%

Cc1ccc(C)c(CSc2nnc([C@@H](N)C(C)C)o2)c1
cytotoxicity at 70.5 h: -0.583%

CSc1nnc(N(CCC#N)CCC#N)s1
cytotoxicity at 70.5 h: 6.15%

O=C(O)Cn1ccc(=O)c2cc(Cl)ccc21
cytotoxicity at 70.5 h: -16.7%

O=C(O)Cn1ccc(=O)c2ccccc21
cytotoxicity at 70.5 h: -14.9%

Nc1cccnc1N1CCC(c2ccccc2)CC1
cytotoxicity at 70.5 h: 25%

COC(=O)CCn1ccc(=O)c2cc(F)ccc21
cytotoxicity at 70.5 h: -8.87%

CC(C)NC(=O)CN1CCCNCC1
cytotoxicity at 70.5 h: -0.253%

COCCn1ccc2ccc(C(=O)O)cc21
cytotoxicity at 70.5 h: -9.99%

CC(C)CCc1n[nH]c(C(=O)O)c1Cl
cytotoxicity at 70.5 h: 16.9%

Nc1nc2c(c3c1C(=O)NC3=O)CCC2
cytotoxicity at 70.5 h: -14.7%

O=C1NCCCc2c1oc1ccc(O)c(CN3CCOCC3)c21
cytotoxicity at 70.5 h: 30.3%

NC(=O)CN1CC[C@@]2(O)CCCC[C@H]2[C@@H]1c1ccc2c(c1)OCO2
cytotoxicity at 70.5 h: -2.64%

COc1ccc(C(=O)N2CC[C@@]3(O)CCCC[C@H]3C2)cc1OC
cytotoxicity at 70.5 h: 5.36%

O=C(Cn1ccc2cc(Br)ccc21)NC[C@@H]1CCCN2CCCC[C@H]12
cytotoxicity at 70.5 h: 9.59%

COC(=O)CNC(=O)Cn1ccc2cccc(OC)c21
cytotoxicity at 70.5 h: 7.12%

CCC(C)N1C(=O)c2ccc(C(=O)NCCc3c[nH]cn3)cc2C1=O (stereo not drawn)
cytotoxicity at 70.5 h: -2.09%

COc1cccc2ccn(CC(=O)NCC(C)C)c12
cytotoxicity at 70.5 h: 11.2%

CC(=O)c1cn(CC(=O)N[C@H](C(=O)O)C(C)C)c2ccccc12
cytotoxicity at 70.5 h: -13.5%

CSCC[C@H](NC(=O)Cn1ccc2ccc(Cl)cc21)C(=O)O
cytotoxicity at 70.5 h: -16.7%

CC(=O)c1cn(CCC(=O)N[C@@H](CC(C)C)C(=O)O)c2ccccc12
cytotoxicity at 70.5 h: -7.76%

O=C1CC(c2ccc(O)cc2)c2c(c(C(=O)O)cn2-c2ccccc2)N1 (stereo not drawn)
cytotoxicity at 70.5 h: -10.6%

COc1cccc(-c2nc(C)c(C(=O)N[C@@H](CCSC)C(=O)O)s2)c1
cytotoxicity at 70.5 h: -21.7%

CC(C)CNC(=O)c1cn(C)c(=O)c2ccccc12
cytotoxicity at 70.5 h: 7.18%

Cn1c(C(=O)N2CC[C@@]3(O)CCCC[C@H]3C2)cc2ccccc21
cytotoxicity at 70.5 h: -3.98%

Cn1ccc2ccc(C(=O)N3CC[C@@]4(O)CCCC[C@H]4C3)cc21
cytotoxicity at 70.5 h: 7.95%

Cn1ccc2cc(C(=O)N3CC[C@@]4(O)CCCC[C@H]4C3)ccc21
cytotoxicity at 70.5 h: -13.9%

Cn1ccc2ccc(C(=O)NC3CCOC(C)(C)C3)cc21 (stereo not drawn)
cytotoxicity at 70.5 h: 8.55%

Cc1nn(-c2ncnc3[nH]cnc23)c2c1C(C(C)C)CC(=O)N2 (stereo not drawn)
cytotoxicity at 70.5 h: -1.6%

COc1cc2nc(C)n(CC(=O)NCCO)c(=O)c2cc1OC
cytotoxicity at 70.5 h: -8.13%

Cn1c(CN2CCCCC2)cc(=O)c(O)c1CN1CCCCC1
cytotoxicity at 70.5 h: 2.14%

COc1ccc(NC(=O)CCNc2ncccn2)cn1
cytotoxicity at 70.5 h: -30.9%

COc1cc(C2CC(=O)Oc3cc(C)[nH]c(=O)c32)ccc1O (stereo not drawn)
cytotoxicity at 70.5 h: -18.3%

COc1cc(OC)c(C2CC(=O)Oc3cc(C)[nH]c(=O)c32)c(OC)c1 (stereo not drawn)
cytotoxicity at 70.5 h: -20.1%

COC(=O)CC(C1=Cc2ccccc2OC1)c1oc(C)cc(=O)c1O (stereo not drawn)
cytotoxicity at 70.5 h: 19.3%

O=C(NCC1CCOCC1)c1cc(-c2ccc3c(c2)CCO3)n[nH]1
cytotoxicity at 70.5 h: 17.3%

C=C(C)COc1ccc(C(CC(=O)OC)c2oc(C)cc(=O)c2O)cc1 (stereo not drawn)
cytotoxicity at 70.5 h: -0.596%

O=c1[nH]cc(Nc2ccccc2)c(=O)[nH]1
cytotoxicity at 70.5 h: 35%

OCc1cc2ccccc2nc1N1CCCCC1
cytotoxicity at 70.5 h: 31.2%

CCOc1ccc2[nH]c3c(N(C)CC4OCCO4)ncnc3c2c1
cytotoxicity at 70.5 h: -21.1%

Cc1cccc(OCCN2CCC(c3ccnn3CCO)CC2)c1
cytotoxicity at 70.5 h: -7.3%

OCCn1nccc1C1CCN(CCOc2ccccc2)CC1
cytotoxicity at 70.5 h: 8.03%

CCc1nc(C(=O)N2CCCCC2)nn1-c1ccccc1Cl
cytotoxicity at 70.5 h: -6.89%

COc1c(CNCc2ccc3c(c2)OCO3)c(C(C)C)nn1C
cytotoxicity at 70.5 h: 18.3%

CC(C)c1nn(C)c(N2CCOCC2)c1CNC(C)c1ccco1 (stereo not drawn)
cytotoxicity at 70.5 h: -2.73%

CC(C)c1nn(C)c(N(C)C)c1CNCc1ccc(CO)c(F)c1
cytotoxicity at 70.5 h: 1.57%

Cc1nccn1-c1cc(CNC(=O)CCS(=O)(=O)C2CCCC2)ccn1
cytotoxicity at 70.5 h: 10.7%

CN(C)c1ccc(C(=O)N2CCCC(n3cccn3)C2)nn1 (stereo not drawn)
cytotoxicity at 70.5 h: -4.36%

CCc1nc(C(=O)N2CCOCC2)nn1-c1ccccc1Cl
cytotoxicity at 70.5 h: -3.34%

O=C(c1ccc(N2CCCC2)nn1)N1CCCC(n2ccnc2)C1 (stereo not drawn)
cytotoxicity at 70.5 h: -5.71%

Cc1nc(C)n(CC2CN(CCOc3cccc(C#N)c3)CCO2)n1 (stereo not drawn)
cytotoxicity at 70.5 h: -6.4%

Cc1cc(C(=O)N2CCOC(c3nc(C(C)C)n[nH]3)C2)c(C)s1 (stereo not drawn)
cytotoxicity at 70.5 h: -4.17%

CN(Cc1ccc(F)cc1)C(=O)Nc1cccnc1N1CCCC1
cytotoxicity at 70.5 h: -6.22%

CC(C)c1n[nH]c(C2CN(C(=O)c3ncoc3C(C)C)CCO2)n1 (stereo not drawn)
cytotoxicity at 70.5 h: -2.71%

CC(Cn1cccn1)NCCCc1nc(-c2cccs2)no1 (stereo not drawn)
cytotoxicity at 70.5 h: 1.95%

CC1CCCCN1CCNC(=O)c1scnc1Cl (stereo not drawn)
cytotoxicity at 70.5 h: -12.6%

CC(C)c1noc(C(C)N2CCN(Cc3cccnc3)CC2)n1 (stereo not drawn)
cytotoxicity at 70.5 h: -5.62%

CCC(O)CN1CCN(C(=O)c2cnc3n[nH]c(C)c3c2)CC1 (stereo not drawn)
cytotoxicity at 70.5 h: -7.48%

Cc1nc(C)n(CC2CN(Cc3ccc4c(c3)OCCO4)CCO2)n1 (stereo not drawn)
cytotoxicity at 70.5 h: -14.3%

CCn1nc2c(cc1=O)CN(Cc1nc(C)c(C)o1)CC2
cytotoxicity at 70.5 h: -15.3%

Cc1ncc2c(n1)CN(Cc1nc(-c3ccsc3)no1)CC2
cytotoxicity at 70.5 h: -21.5%

CC(c1nc(C(C)(C)C)no1)N1CCN(Cc2ccco2)CC1 (stereo not drawn)
cytotoxicity at 70.5 h: -15%

Cc1cnc2c(S(=O)(=O)NCC3CC3)cccc2c1
cytotoxicity at 70.5 h: -1.56%

O=C(NCc1ccc(Cl)s1)NCc1nnc2n1CCCCC2
cytotoxicity at 70.5 h: -14.9%

CC1CCN(CCNC(=O)c2scnc2Cl)CC1
cytotoxicity at 70.5 h: 18.5%

COc1ccnc(N2CCN(CC(=O)N3CCC(C)CC3)CC2)n1
cytotoxicity at 70.5 h: -13.2%

COCCN(CCOC)C(=O)Nc1cc(C(F)(F)F)c[nH]c1=O
cytotoxicity at 70.5 h: -15.1%

COc1ccnc(N2CCN(CC(=O)N3CCOC(C)C3)CC2)n1 (stereo not drawn)
cytotoxicity at 70.5 h: -8.38%

Cc1nc2ccnn2c(C)c1CCC(=O)N1CCN2CCCCC2C1 (stereo not drawn)
cytotoxicity at 70.5 h: -9.21%

Cc1cc(C)n(C2CCCN(C(=O)c3csc(C4CC4)n3)C2)n1 (stereo not drawn)
cytotoxicity at 70.5 h: -11%

CC(=O)Nc1nc(C(=O)N2CCCC(n3ccnc3C)C2)cs1 (stereo not drawn)
cytotoxicity at 70.5 h: -14.1%

CCc1ncc2c(n1)CN(Cc1nc(-c3cccnc3)no1)CC2
cytotoxicity at 70.5 h: -6.75%

CC(C)n1nc2c(cc1=O)CN(Cc1nc3ccccc3o1)CC2
cytotoxicity at 70.5 h: 10.1%

O=C(c1cc[nH]n1)N1CCCC(c2cc(C(F)(F)F)[nH]n2)C1 (stereo not drawn)
cytotoxicity at 70.5 h: -17.8%

O=C(c1ccco1)N1CCCC(c2cc(C(F)(F)F)[nH]n2)C1 (stereo not drawn)
cytotoxicity at 70.5 h: -7.38%

Cc1cc(C2CCCN(C(=O)c3ccc(Cl)o3)C2)n[nH]1 (stereo not drawn)
cytotoxicity at 70.5 h: -8.12%

Cn1ccnc1Sc1ccc(N)cn1
cytotoxicity at 70.5 h: 0.97%

CCC(C)[C@H](N)c1nnc(SCC(=O)Nc2cc(C)ccc2C)o1 (stereo partly drawn)
cytotoxicity at 70.5 h: -1.84%

CC(C)C[C@H](N)c1nnc(SCC(=O)Nc2ccc(Br)cc2)o1
cytotoxicity at 70.5 h: -5.07%

COc1ccc2[nH]cc(C(=O)CNc3nccs3)c2c1
cytotoxicity at 70.5 h: 14.4%
